Where two headings read alike, the source gives them in different places.
How the values were obtained:
human plasma kallikrein = human plasma kallikrein (Homo sapiens (Human), UniProt P03952); assay: Kallikrein inhibition assay (FLINT) utilizing a quenched AMC peptide substrate; type: biochemical; conditions: 30 min preincubation, kinetic reads over 30 min, Z-Gly-Pro-Arg-AMC substrate 50 μM; read-out: Kallikrein Kin Inh IC50
Procedure, shortened: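 Fluorogenic Z-Gly-Pro-Arg-AMC cleavage (50 μM substrate, 2 nM kallikrein, Tris pH 7.5, CaCl2, BSA, CHAPS, 2% DMSO) read kinetically at 340/440 nm for 30 min after 30-min compound pre-incubation. Compounds in 11-point 3-fold series from 1 μM; percent inhibition fitted to four-parameter equation for IC50.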

Factor XIa = Factor XIa (Homo sapiens (Human), UniProt P03951); assay: Factor XIa inhibition assay (FLINT) utilizing a fluorophore-quencher pair peptide substrate; type: biochemical; conditions: 30 min preincubation, kinetic reads over 30 min, read-out: FXIa Kin Inh IC50
Sequence of Factor XIa (P03951 388-625): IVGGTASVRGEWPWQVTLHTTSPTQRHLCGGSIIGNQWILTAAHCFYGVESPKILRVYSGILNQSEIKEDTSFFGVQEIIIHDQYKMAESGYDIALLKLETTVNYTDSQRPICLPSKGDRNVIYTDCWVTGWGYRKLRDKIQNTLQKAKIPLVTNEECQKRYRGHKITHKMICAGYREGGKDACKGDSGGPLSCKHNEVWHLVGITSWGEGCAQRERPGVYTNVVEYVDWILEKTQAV
Sequence of Factor XIa (P03951 19-387 partner): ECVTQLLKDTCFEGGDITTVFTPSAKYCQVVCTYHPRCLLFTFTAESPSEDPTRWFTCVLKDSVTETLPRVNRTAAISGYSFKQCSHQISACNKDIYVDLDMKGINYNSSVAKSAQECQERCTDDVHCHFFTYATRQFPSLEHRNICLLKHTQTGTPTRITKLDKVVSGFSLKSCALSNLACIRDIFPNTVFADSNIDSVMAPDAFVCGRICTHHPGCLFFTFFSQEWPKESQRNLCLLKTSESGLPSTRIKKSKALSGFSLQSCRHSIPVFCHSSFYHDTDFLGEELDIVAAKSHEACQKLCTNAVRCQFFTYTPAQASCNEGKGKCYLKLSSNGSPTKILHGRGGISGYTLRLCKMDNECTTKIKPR
Procedure, shortened: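 FXIa ([…]) preincubated 30 min with compound (11-point 3-fold dilution, top 100 nM, 2% DMSO), then 15 μM quenched FXI Arg146-based peptide added; Tris pH 7.5, CaCl2, BSA, CHAPS. Fluorescence 485/520 nm read kinetically every 5 min over 30 min at RT; IC50 by 4-parameter fit.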

[1] = 5Fam-[…]-K5Tamra substrate 15 μM
[2] = 5Fam-KLTRAETV-K5Tamra substrate 15 μM

Sequence of human plasma kallikrein (P03952 391-638): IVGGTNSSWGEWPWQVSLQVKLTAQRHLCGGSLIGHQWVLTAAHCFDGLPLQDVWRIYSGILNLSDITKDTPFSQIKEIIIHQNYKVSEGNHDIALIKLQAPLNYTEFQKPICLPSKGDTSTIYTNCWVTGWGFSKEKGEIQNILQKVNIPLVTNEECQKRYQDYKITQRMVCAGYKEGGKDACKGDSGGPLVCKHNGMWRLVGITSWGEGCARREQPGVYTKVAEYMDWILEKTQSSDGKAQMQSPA
Sequence of human plasma kallikrein (P03952 20-390 partner): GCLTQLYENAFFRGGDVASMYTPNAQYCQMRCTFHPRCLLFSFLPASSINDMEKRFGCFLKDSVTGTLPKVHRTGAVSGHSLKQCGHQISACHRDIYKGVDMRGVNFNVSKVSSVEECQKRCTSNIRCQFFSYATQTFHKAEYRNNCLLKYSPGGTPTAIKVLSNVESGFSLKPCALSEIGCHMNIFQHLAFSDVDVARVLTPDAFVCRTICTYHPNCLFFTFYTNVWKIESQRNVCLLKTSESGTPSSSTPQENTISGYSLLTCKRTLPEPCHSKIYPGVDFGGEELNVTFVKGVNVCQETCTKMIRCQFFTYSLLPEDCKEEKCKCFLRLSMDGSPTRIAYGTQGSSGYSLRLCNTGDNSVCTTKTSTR

| Compound | IC50 (human plasma kallikrein) | IC50 (Factor XIa; [1]) | IC50 (Factor XIa; [2]) |
| --- | --- | --- | --- |
| C[C@H](Oc1nccc(-c2cnc([C@@H]3CC[C@H]4CC(c5c(-n6cnnn6)ccc(Cl)c5F)=CC(=O)N43)[nH]2)c1F)c1nnco1 (relative stereo) [Example 127, (3S*,8aS*)-3-(5-(2-((S*)-1-(1,3,4-oxadiazol-2-yl)ethoxy)-3-fluoropyridin-4-yl)-1H-imidazol-2-yl)-7-(3-chloro-2-fluoro-6-(1H-tetrazol-1-yl)phenyl)-2,3,8,8a-tetrahydroindolizin-5(1H)-one] | 12.9 nM | 10.9 nM |  |
| O=C1C=C(c2c(-n3cnnn3)ccc(Cl)c2F)C[C@H]2CC[C@H](c3nc(F)c(-c4ccnc(C5(O)CC5)c4)[nH]3)N12 [Example 179, (3R,8aR)-7-(3-chloro-2-fluoro-6-(1H-tetrazol-1-yl)phenyl)-3-(4-fluoro-5-(2-(1-hydroxycyclopropyl)pyridin-4-yl)-1H-imidazol-2-yl)-2,3,8,8a-tetrahydroindolizin-5(1H)-one] | 1.4 nM |  | 0.5 nM |
| Nc1ccc(-c2cnc([C@@H]3CC[C@@H]4CC(c5cc(Cl)ccc5-n5cnnn5)=CC(=O)N43)[nH]2)c(F)n1 [Example 123, (3S,8aR)-3-[5-(6-amino-2-fluoro-3-pyridyl)-1H-imidazol-2-yl]-7-[5-chloro-2-(tetrazol-1-yl)phenyl]-2,3,8,8a-tetrahydro-1H-indolizin-5-one] | 8.6 nM |  | 0.4 nM |
| NC(=O)c1ccc(-c2c[nH]c([C@@H]3CC[C@@H]4CC(c5c(-n6cc(C(F)(F)F)nn6)ccc(Cl)c5F)=CC(=O)N43)n2)s1 [Example 220, 5-(2-((3S,8aR)-7-(3-Chloro-2-fluoro-6-(4-(trifluoromethyl)-1H-1,2,3-triazol-1-yl)phenyl)-5-oxo-1,2,3,5,8,8a-hexahydroindolizin-3-yl)-1H imidazol-4-yl)thiophene-2-carboxamide] | 9.7 nM |  | 5 nM |

The next lines start with the values.

| IC50 (human plasma kallikrein) | IC50 (Factor XIa; [1]) | IC50 (Factor XIa; [2]) | Compound |
| --- | --- | --- | --- |
| 1.8 nM |  | 0.7 nM | O=C1C=C(c2c(-n3cnnn3)ccc(Cl)c2F)C[C@H]2CC[C@@H](c3nc(F)c(-c4ccnc(-c5ccn[nH]5)c4)[nH]3)N12 (single isomer, unassigned) [Example 31] |
| 7.8 nM |  | 1 nM | CC(C)(O)CCc1nccc(-c2cnc([C@@H]3CC[C@@H]4CC(c5c(-n6cnnn6)ccc(Cl)c5F)=CC(=O)N43)[nH]2)c1F (single isomer, unassigned) [Example 158, (3*S,8a*R)-7-(3-chloro-2-fluoro-6-(1H-tetrazol-1-yl)phenyl)-3-(5-(3-fluoro-2-(3-hydroxy-3-methylbutyl)pyridin-4-yl)-1H-imidazol-2-yl)-2,3,8,8a-tetrahydroindolizin-5(1H)-one] |
| 1.7 nM | 0.7 nM |  | CC(C)C(=O)Nc1ccccc1-c1cnc([C@@H]2CC[C@@H]3CC(c4c(-n5cnnn5)ccc(Cl)c4F)=CC(=O)N32)[nH]1 (relative stereo) [Example 305, N-(2-(2-((3S,8aR*)-7-(3-Chloro-2-fluoro-6-(1H-tetrazol-1-yl)phenyl)-5-oxo-1,2,3,5,8,8a-hexahydroindolizin-3-yl)-1H-imidazol-4-yl)phenyl)isobutyramide] |
| 6.5 nM |  | 0.7 nM | O=C1C=C(c2c(-n3cnnn3)ccc(Cl)c2F)C[C@H]2CC[C@@H](c3nc(F)c(-c4ccnc(CO)c4F)[nH]3)N12 [Example 107, (3S,8aR)-7-[3-chloro-2-fluoro-6-(tetrazol-1-yl)phenyl]-3-[4-fluoro-5-[3-fluoro-2-(hydroxymethyl)-4-pyridyl]-1H-imidazol-2-yl]-2,3,8,8a-tetrahydro-1H-indolizin-5-one] |
| 5.9 nM |  | 3.5 nM | O=C1Cc2cc(-c3cnc([C@@H]4CC[C@H]5CC(c6c(-n7cnnn7)ccc(Cl)c6F)=CC(=O)N54)[nH]3)ccc2N1 [Example 283, 5-(2-((3S,8aS)-7-(3-Chloro-2-fluoro-6-(1H-tetrazol-1-yl)phenyl)-5-oxo-1,2,3,5,8,8a-hexahydroindolizin-3-yl)-1H-imidazol-5-yl)indolin-2-one] |

Reference: patent US20230295157A1, “3-(1H-IMIDAZOL-2-YL)-2,3,8,8A-TETRAHYDROINDOLIZIN-5(1H)-ONE DERIVATIVES USEFUL AS FACTOR XIA INHIBITORS” (JANSSEN PHARMACEUTICA NV, priority 2020, published 2023)
